The numbers were not newly measured in patent US10716959B2, “Polymer-flavonoid conjugates and hydrogels for biomedical applications” (AGENCY FOR SCIENCE, TECHNOLOGY AND RESEARCH, priority 2013, dated 2020), which cites them from elsewhere.

For the data set the following is noted: physiological temperature and pH.

`O=C(O[C@@H]1Cc2c(O)cc(O)cc2O[C@@H]1c1cc(O)c(O)c(O)c1)c1cc(O)c(O)c(O)c1` [EGCG, (−)-epigallocatechin-3-gallate]: the half-life result was “less than 30 min”.
